Columns and labels:
Type in all cases: cell-based, Human
dermal papillae cells = assay: UV stress-induced premature senescence in dermal papillae cells measured by SA-β-Gal staining; details: 20 mJ/cm^2 UVB, 48 hours, FIG. 4
Protocol: Human dermal papillae cells were seeded into 12 well plates in Dermal Papillae Growth Medium (DPGM) and grown at 37±2° C. and 5±1% CO2 until confluent with a media change every 48 to 72 hours as needed. Once the cells were confluent, the cell culture media was replaced with PBS and the cells were irradiated with 20 mJ/cm^2 UVB. After the UVB irradiation, the PBS was removed and replaced with cell culture media supplemented with the various test materials. Non-supplemented DPGM was used as the untreated control. One set of cells was not exposed to UVB and served as the non-UVB treated control. After the addition of the media, sets of cells were cultured for 48 hours. At the end of the incubation period the cells were obtained and assayed for changes in SA-β-Gal activity.
In a second set of studies, dermal papillae cells were grown and plated as described above. […] This was done to determine the effects of the test materials alone on the markers measured in this study.
After the 48 hour incubation, the cells were washed with PBS and then briefly fixed for 6-7 minutes in fixation buffer (2% formaldehyde and 0.2% glutaraldehyde in PBS). […] On the following day, the wells were examined microscopically and photographed so that the number of stained cells per field could be quantified. The number of positive staining cells in each field was counted. […]

Ogg1 = assay: Cellular expression of DNA repair enzyme Ogg1 in fibroblasts (microfiltration blot, immunodetection); details: treatment level 0.1%, 24 hours, FIG. 5
Protocol: Human fibroblasts were seeded into culture flasks and grown at 37±2° C. and 5±1% CO2 using FGM. When a sufficient number of cells had been grown they were transferred to 24-well plates and cultured for a minimum of 24 hours to allow the cells to adhere to the well plates. The cells were then grown until confluent, with a media change every 48 to 72 hours.
The test materials were prepared in FGM. The media was then removed from the culture plates and replaced with 0.5 ml of media supplemented with test material, with each treatment being tested in triplicate. FGM alone served as the untreated control. After the application of the cell culture media, the plates were incubated for 24 hours at 37±2° C. and 5±1% CO2. At the end of the incubation period the culture media was removed and the cells were washed once with phosphate buffered saline. […] The protein concentration of the supernatant was determined using the BCA Protein Assay. […]
After the final wash, the membrane was placed into a BioRad Molecular Imager FX and scanned using an excitation laser and emission filter combination appropriate for the fluorophore. Images produced by the scanner were then analyzed using ImageJ image analysis software.
Fluorescence intensity measurements were expressed in Relative Fluorescence Units (RFU). Mean RFU values for each treatment were then calculated and treatments were compared using a one way ANOVA.

p53 = assay: H2O2 stress-induced premature senescence in epidermal keratinocytes, p53 expression (ELISA); details: 1% treatment level, after 150 μM H2O2 for two hours, FIG. 3
Protocol: (§1) Human epidermal keratinocytes were seeded into culture flasks and grown at 37±2° C. and 5±1% CO2 using serum free Epilife media supplemented as recommended by the manufacturer. When a sufficient number of cells had been grown they were transferred to 96-well plates and cultured for a minimum of 24 hours to allow the cells to adhere to the well plates. After the initial 24-hour incubation, the media was changed to remove any non-adherent cells and the remaining cells were cultured until confluent, with a media change every 48 to 72 hours as needed.
(§2) Premature cellular senescence was induced by treating the keratinocytes with H2O2. For the H2O2 treatment, the cell culture media was replaced with phosphate buffered saline (PBS) supplemented with 150 μM of H2O2 . The cells were incubated in the H2O2 solution for two hours, after which they were washed once with PBS and then fresh media, either with or without test material, was applied to the cells. At these levels, the H2O2 treatment was not observed to have an impact on cell viability.
(§3) Relative changes in the amount of ATM and p53 expression were determined in the keratinocytes using ELISA based methods. […] After a sufficient level of color development was achieved the plate was read at 460 nm using a plate reader.

ATM = assay: H2O2 stress-induced premature senescence in epidermal keratinocytes, ATM expression (ELISA); details: 1% treatment level, after 150 μM H2O2 for two hours, FIG. 2
Protocol: as §1, §2, §3

[1] = system: intrinsically-aged dermal fibroblasts; assay: Delayed senescence in intrinsically-aged dermal fibroblasts measured by SA-β-Gal staining; details: for expression of SA-β-Gal (number of stained cells) vs untreated cells: after 18 population doublings, FIG. 1
Protocol: The peptide isolated from Example 2 was employed to examine the ability of the peptide to delay senescence in dermal fibroblasts aged through a series of population doublings.
Human neonatal fibroblasts were obtained after primary culture (passage 1) and seeded into a set of T-75 flasks in 3 ml/flask of Fibroblast Growth Media (FGM) and grown at 37±2° C. and 5±1% CO2. The cells were expanded through 6 passages (one passage was defined as growing the cells until the flask was confluent and then splitting the cells 1:2, thus one passage was roughly equal to one population doubling). After the 6th passage, the fibroblasts were split into different treatment groups and treated with the various test materials through passage 18. At passage 18 a portion of the fibroblasts were used to assay changes in Senescence Associated-β-Galactosidase (SA-β-Gal), while the remaining fibroblasts were cultured for an additional week (approximately 2 additional passages) in the absence of test materials.
Prior to staining, the fibroblasts were washed once with PBS and then fixed for approximately 6 minutes in fixing solution (2% formaldehyde and 0.2% glutaraldehyde in PBS). After fixing, the cells were washed three times with PBS, followed by the addition of the staining solution (150 mM NaCl, 2 mM MgCl2, 40 mM citric acid (pH 6.0), 12 mM NaPO3, 5 mM potassium ferrocyanide, 5 mM potassium ferricyanide, and […] X-gal). The cells were then incubated at 37° C. overnight in a non-CO2 incubator. On the following day the staining solution was removed and replaced with PBS. The cells were then photographed microscopically and the number of stained cells (SA-β-Gal positive) in each field was counted.

With `CN[C@@H](Cc1ccccc1)C(=O)N[C@H](C(=O)N[C@@H](C)C(=O)N1CCC[C@H]1C(=O)N[C@@H](Cc1ccccc1)C(=O)N1CCC[C@H]1C(=O)O)C(C)C` [Hexapeptide, Phe-Val-Ala-Pro-Phe-Pro] the “SA-β-Gal expression (number of stained cells) after UV” value (dermal papillae cells; 0.5% Hexapeptide) was “statistically significant decrease”, the “SA-β-Gal expression (number of stained cells) after UV” value (dermal papillae cells; 1.0% Hexapeptide) was “statistically significant decrease” and the “expression of Ogg1 (RFU) vs untreated control” value (Ogg1) was “statistically increase expression of Ogg1”. For the same molecule, the “expression of p53 protein vs prematurely senescent untreated keratinocytes” value (p53) was “statistically delay senescence”, the “expression of ATM protein vs prematurely senescent untreated keratinocytes” value (ATM) was “statistically delay senescence” and the “expression of SA-β-Gal (number of stained cells) vs untreated cells” value ([1]; 0.5% Hexapeptide treatment) was “untreated cells was statistically higher than that seen at 0.5 or 1.0% Hexapeptide treatment”. The “expression of SA-β-Gal (number of stained cells) vs untreated cells” value ([1]; 1.0% Hexapeptide treatment) was “untreated cells was statistically higher than that seen at 0.5 or 1.0% Hexapeptide treatment”, the “expression of SA-β-Gal one week after removal of the Hexapeptide” value ([1]; 1% treatment) was “increase but not yet back to normal” and the “expression of SA-β-Gal one week after removal of the Hexapeptide” value ([1]; all treatments except the 1% treatment) was “returns to normal”.

Reference: US20110052676A1, “Composition For Delaying Cellular Senescence” (priority 2009, published 2011)
